Laboratory results from PMC11256326, “Discovery of Heparin Mimetic, Potent, and Selective Inhibitors of Human Clotting Factor XIIIa” (ACS Omega, 2024).

Assays:
[1] = tested on: MCF-7 human breast carcinoma cells; test: cell viability, Alamar Blue, MCF-7; format: cell-based; conditions: MCF-7, 10 μM, 3 days
Protocol: (§1) To further evaluate the selectivity as well as the potential toxicity of inhibitors, we studied their effects on the clotting times of normal human plasma as well as their effects on the proliferation of three cell lines. On the one hand, the inhibitors’ effects on activated partial thromboplastin time (APTT) and prothrombin time (PT) were measured, as described earlier under in vitro conditions,[52]−[55] using variable concentrations (0–2000 μM) (Table 3). […] On the other hand, the antiproliferative properties of inhibitors 13 and 16 were evaluated in three cell lines of breast (MCF-7), intestine (CaCo-2), and kidney (HEK-293) (Figure 5B), as described earlier.[56] […] Overall, inhibitor 16 can be considered for further development as a potent, selective, and nontoxic inhibitor of human FXIIIa.
(§2) HEK-293 human embryonic kidney cells,[66] CaCo-2 heterogeneous human epithelial colorectal adenocarcinoma cells,[67] and MCF-7 human breast carcinoma cells[68] were treated as reported previously.[69],[70] […] Subsequently, fluorescence readings (λEx. = 560 nm and λEm. = 590 nm) were taken using the Synergy H1 multiplate reader (BioTek) to quantify cell numbers both in the absence (utilizing distilled water as a control) and the presence of inhibitors 13 and 16 (at a concentration of 10 μM; incubated for 3 days). […]

[2] = tested on: CaCo-2 heterogeneous human epithelial colorectal adenocarcinoma cells; test: cell viability, Alamar Blue, CaCo-2; format: cell-based; conditions: CaCo-2, 10 μM, 3 days
Protocol: as §1, §2

factor Xa = target: T1, factor Xa (Homo sapiens, UniProt P00742); test: chromogenic substrate hydrolysis assay, factor Xa; format: biochemical; conditions: for IC50: Tris-HCl pH 7.4, 37 °C, > values from highest concentration used, read-out: FXa IC50; for FXa HS (Hill slope) / FXa ΔY (efficacy): pH 7.4, 37 °C
T1 construct: Human plasma proteins such as FXIIIa, thrombin, factor Xa, and factor XIa; purchased Haematologic Technologies; host or cells: human plasma
Excerpt: (§3) One of the motivations for targeting anion-binding sites on human FXIIIa was to achieve selectivity in inhibition over closely related enzymes such as other clotting serine proteases or other transglutaminases and cysteine proteases.
(§4) Human plasma proteins such as FXIIIa, thrombin, factor Xa, and factor XIa were procured from Haematologic Technologies. Recombinant human TG-2 was sourced from Tocris Bioscience. Their activities were validated according to the supplier’s instructions. Chromogenic substrates for thrombin and factor Xa were acquired from Biomedica Diagnostics, while the factor XIa chromogenic substrate (S-2366) was obtained from Diapharma. Dithiothreitol, N,N-dimethylcasein, and dansylcadaverine were purchased from Sigma Aldrich. Stock solutions of thrombin and factor XIa were prepared in 50 mM Tris-HCl buffer, pH 7.4, containing 150 mM sodium chloride, 0.1% PEG8000, and 0.02% Tween80. The stock solution of factor Xa was prepared in 20 mM Tris-HCl buffer, pH 7.4, containing 100 mM sodium chloride, 0.1% PEG8000, 2.5 mM CaCl2, and 0.02% Tween80. The stock solutions of FXIIIa and rTG-2 were prepared in 50 mM Tris-HCl, 1 mM CaCl2, 100 mM sodium chloride, 0.02% Tween80, 0.1% PEG8000, and 2 mg/mL dimethylcasein. Papain and its chromogenic substrate (N-α-benzoyl-L-arginyl-4-nitroanilide) were obtained from Sigma Aldrich. Papain was prepared in 50 mM Tris-HCl buffer, pH 7.4, containing 100 mM NaCl, 100 mM DTT, 2.5 mM CaCl2, 0.1% PEG8000, and 0.02% Tween80. Human plasma for coagulation assays was obtained from George King Bio-Medica for the clotting assays. Thromboplastin-D (PT reagent), APTT reagent containing ellagic acid, and 0.025 M solution of CaCl2 were obtained from Thermo Fisher Scientific. Results were reproduced at least three times.
(§5) The inhibitory potential of various heparin mimetics against other clotting factors, including thrombin, factor Xa, and factor XIa, was also examined using established chromogenic substrate hydrolysis assays.[47],[50] For instance, in each well of a 96-well microplate containing either 85 or 185 μL of 20–50 mM Tris-HCl buffer (pH 7.4), supplemented with 100–150 mM NaCl, 0.1% PEG8000, and 0.02% Tween80 at either 25 or 37 °C, 5 μL of the inhibitor (or high purity water) and 5 μL of the enzyme were added. The final concentrations of the enzymes were 6 nM (thrombin), 1.09 nM (factor Xa), and 0.8 nM (factor XIa). After a 5 min incubation period, 5 μL of Spectrozyme TH (final concentration: 0.050 mM), Spectrozyme FXa (0.125 mM), or factor XIa substrate (0.35 mM) was swiftly added, and the residual enzyme activity was gauged from the initial rate of increase in absorbance at λ405 nm. The relative residual enzyme activity was calculated as a function of the inhibitor concentration. If 50% or more of the enzyme was inhibited, the results were then plotted using eq 1 to determine the corresponding IC50 values.

factor XIa = target: T2, factor XIa (Homo sapiens, UniProt P03951); test: chromogenic substrate hydrolysis assay, factor XIa; format: biochemical; conditions: for IC50: Tris-HCl pH 7.4, 37 °C, > values from highest concentration used, read-out: FXIa IC50; for FXIa HS (Hill slope) / FXIa ΔY (efficacy): pH 7.4, 37 °C
T2 construct: Human plasma proteins such as FXIIIa, thrombin, factor Xa, and factor XIa; purchased Haematologic Technologies; host or cells: human plasma
Excerpt: as §3, §4, §5

normal human plasma [3] = test: activated partial thromboplastin time (APTT) of normal human plasma; format: biochemical; conditions: for APTT2X (concentration required to double APTT): normal human plasma, in vitro
Protocol: as §1
(§6) Clotting times, including activated partial thromboplastin time (APTT) and prothrombin time (PT), were assessed in normal human plasma utilizing the BBL Fibrosystem fibrometer from Becton–Dickinson, as detailed in previous publications.[51]−[54] For the PT assay, thromboplastin-D was dissolved in 4 mL of highly purified water and then warmed to 37 °C. Subsequently, 10 μL of the inhibitor was added to 90 μL of normal human plasma and incubated for 30 s. Following this, 200 μL of prewarmed PT reagent was added, and the clotting time was recorded. In the APTT assay, 10 μL of the inhibitor was combined with 90 μL of normal human plasma and 100 μL of prewarmed APTT reagent (0.2% ellagic acid). After incubation for 4 min at 37 °C, clotting was initiated by adding 100 μL of prewarmed 0.025 M CaCl2, and the clotting time was documented. Multiple concentrations of each molecule were employed in both assays to establish a concentration vs effect curve.

thrombin [4] = test: chromogenic substrate hydrolysis assay, thrombin; format: biochemical, human
Excerpt: as §3, §4, §5

thrombin [5] = target: T3, thrombin (Homo sapiens, UniProt P00734); test: chromogenic substrate hydrolysis assay, thrombin; format: biochemical; conditions: for IC50: Tris-HCl pH 7.4, 37 °C, > values from highest concentration used; for thrombin HS (Hill slope) / thrombin ΔY (efficacy): pH 7.4, 37 °C
T3 construct: Human plasma proteins such as FXIIIa, thrombin, factor Xa, and factor XIa; purchased Haematologic Technologies; host or cells: human plasma
Excerpt: as §3, §4, §5

normal human plasma [6] = test: prothrombin time (PT) of normal human plasma; format: biochemical; conditions: in vitro
Protocol: as §1, §6

T2 sequence (P03951 388-625 limits assumed): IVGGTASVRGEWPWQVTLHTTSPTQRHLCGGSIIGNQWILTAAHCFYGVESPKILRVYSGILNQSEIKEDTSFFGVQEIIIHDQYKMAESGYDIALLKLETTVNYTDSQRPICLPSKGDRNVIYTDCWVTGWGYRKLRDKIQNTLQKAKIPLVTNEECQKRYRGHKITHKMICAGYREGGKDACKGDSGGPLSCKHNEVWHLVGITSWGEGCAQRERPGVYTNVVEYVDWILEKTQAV
T2 sequence (P03951 19-387 limits assumed): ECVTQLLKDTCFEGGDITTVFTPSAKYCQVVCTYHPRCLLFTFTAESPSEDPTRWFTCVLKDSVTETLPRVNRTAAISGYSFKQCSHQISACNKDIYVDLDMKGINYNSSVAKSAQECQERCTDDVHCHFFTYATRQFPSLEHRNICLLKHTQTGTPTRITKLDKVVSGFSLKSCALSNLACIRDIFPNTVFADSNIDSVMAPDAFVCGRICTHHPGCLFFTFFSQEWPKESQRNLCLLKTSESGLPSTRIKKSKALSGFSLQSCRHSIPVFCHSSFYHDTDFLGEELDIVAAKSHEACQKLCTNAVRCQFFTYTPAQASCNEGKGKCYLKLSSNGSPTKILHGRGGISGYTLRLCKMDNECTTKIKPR
T1 sequence (P00742 235-488 limits assumed): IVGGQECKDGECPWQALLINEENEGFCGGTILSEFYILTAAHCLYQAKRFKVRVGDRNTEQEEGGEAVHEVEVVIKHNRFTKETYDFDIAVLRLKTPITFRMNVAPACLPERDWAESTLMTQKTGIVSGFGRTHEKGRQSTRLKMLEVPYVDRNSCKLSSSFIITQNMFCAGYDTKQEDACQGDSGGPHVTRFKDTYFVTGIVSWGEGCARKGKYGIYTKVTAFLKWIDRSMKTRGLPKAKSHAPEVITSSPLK
T1 sequence (P00742 41-179 limits assumed): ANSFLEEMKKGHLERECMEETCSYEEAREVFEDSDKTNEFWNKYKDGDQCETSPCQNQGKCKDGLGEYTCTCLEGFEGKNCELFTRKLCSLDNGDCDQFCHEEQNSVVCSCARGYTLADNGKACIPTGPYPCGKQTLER

FXa HS (Hill slope) (factor Xa) | FXa ΔY (efficacy) (factor Xa) [%] | selectivity index for FXIIIa over factor XIa (factor XIa) [fold] | thrombin HS (Hill slope) (thrombin [5]) | thrombin ΔY (efficacy) (thrombin [5]) [%] | Structure (SMILES) | effect on proliferation / cell viability [1] | effect on proliferation / cell viability [2] | selectivity index for FXIIIa over factor Xa (factor Xa) | IC50 (factor Xa) [µM] | IC50 (factor XIa) [µM] | APTT2X (concentration required to double APTT) (normal human plasma [3]) [µM] | selectivity index for FXIIIa over thrombin (thrombin [4]) | IC50 (thrombin [5]) [µM] | concentration to double APTT as fold of the FXIIIa-IC50 (normal human plasma [3]) [fold] | PT2X (concentration required to double PT) (normal human plasma [6]) [µM] | FXIa HS (Hill slope) (factor XIa) | FXIa ΔY (efficacy) (factor XIa) [%]
1.5 ± 0.5 | 87 ± 4 | > 48 | 1.9 ± 1.5 | 43 ± 11 | Nc1c(S(=O)(=O)O)cc(Nc2ccc(Nc3nc(Cl)nc(Nc4ccccc4S(=O)(=O)O)n3)c(S(=O)(=O)O)c2)c2c1C(=O)c1ccccc1C2=O [compound 13] | does not significantly affect the proliferation | does not significantly affect the proliferation | 20 fold | 63.5 ± 13 | > 150 | 1187.2 ± 175 | 28 fold | 86.9 ± 33.6 | – | – | – | –
1.9 ± 0.2 | 80 ± 2 | – | 2.6 ± 1.0 | 62 ± 5 | Cc1cc(-c2ccc(/N=N/c3ccc4c(S(=O)(=O)O)cc(S(=O)(=O)O)c(N)c4c3O)c(C)c2)ccc1/N=N/c1ccc2c(S(=O)(=O)O)cc(S(=O)(=O)O)c(N)c2c1O [compound 18] | – | – | – | – | – | 224.3 ± 20 | – | – | – | 497.9 ± 52 | 1.9 ± 0.3 | 104 ± 3

The next lines start with the molecule.

Structure (SMILES) | FXa HS (Hill slope) (factor Xa) | FXa ΔY (efficacy) (factor Xa) [%] | selectivity index for FXIIIa over factor XIa (factor XIa) [fold] | thrombin HS (Hill slope) (thrombin [5]) | thrombin ΔY (efficacy) (thrombin [5]) [%] | effect on proliferation / cell viability [1] | effect on proliferation / cell viability [2] | selectivity index for FXIIIa over factor Xa (factor Xa) | IC50 (factor Xa) [µM] | IC50 (factor XIa) [µM] | APTT2X (concentration required to double APTT) (normal human plasma [3]) [µM] | selectivity index for FXIIIa over thrombin (thrombin [4]) | IC50 (thrombin [5]) [µM] | concentration to double APTT as fold of the FXIIIa-IC50 (normal human plasma [3]) [fold] | PT2X (concentration required to double PT) (normal human plasma [6]) [µM] | FXIa HS (Hill slope) (factor XIa) | FXIa ΔY (efficacy) (factor XIa) [%]
Nc1c(/N=N/c2ccc(Nc3nc(Cl)nc(Nc4cccc(S(=O)(=O)O)c4)n3)cc2S(=O)(=O)O)c(S(=O)(=O)O)cc2c(O)c(/N=N/c3ccc(Nc4nc(Cl)nc(Nc5cccc(S(=O)(=O)O)c5)n4)cc3S(=O)(=O)O)ccc12 [compound 14] | 2.5 ± 0.9 | 53 ± 5 | > 30 | – | – | – | – | 6 fold | 31 ± 5.7 | > 150 | 583 ± 60 | – | > 500 | – | – | – | –
Nc1c(/N=N/c2ccc(S(=O)(=O)CCOS(=O)(=O)O)cc2)c(S(=O)(=O)O)cc2cc(S(=O)(=O)O)c(/N=N/c3ccc(S(=O)(=O)CCOS(=O)(=O)O)cc3)c(O)c12 [compound 16] | – | – | > 65 | – | – | does not significantly affect the proliferation | does not significantly affect the proliferation | > 208 fold | > 500 | > 150 | 704.6 ± 69 | > 208 fold | > 500 | > 290 | – | – | –
COc1cc(-c2ccc(/N=N/c3ccc4c(S(=O)(=O)O)cc(S(=O)(=O)O)c(N)c4c3O)c(OC)c2)ccc1/N=N/c1ccc2c(S(=O)(=O)O)cc(S(=O)(=O)O)c(N)c2c1O [compound 19] | – | – | – | – | – | – | – | at least 7 fold | > 100 | 6.2 ± 0.4 | 1840.7 ± 88 | at least 7 fold | > 100 | – | 3073.2 ± 281 | 1.5 ± 0.1 | 106 ± 3
